According to publication PMC3375360 (Journal of Medicinal Chemistry, 2012):

Tests used:
Format in all cases: cell-based
[1] = system: T.b. rhodesiense, strain STIB 900 trypomastigotes; assay: In vitro growth inhibition of bloodstream form T. b. rhodesiense trypomastigotes; conditions: for activity designation against T. b. rhodesiense: TDR criteria
[2] = system: T. cruzi, strain Tulahuen C4 amastigotes; assay: In vitro growth inhibition of T. cruzi amastigotes in infected L6 myoblasts
[3] = system: L. donovani axenic, strain MHOM-ET-67/L82 amastigotes; assay: In vitro growth inhibition of axenically cultured L. donovani amastigotes; conditions: for activity designation against L. donovani: TDR criteria
[4] = system: bloodstream form T. b. brucei parasites, engineered to overexpress type I nitroreductase; assay: microbe, parasite or virus in culture; conditions: Trypanosoma brucei, read-out: TbNTR −tet (IC50)
[5] = system: L6 cells (rat skeletal myoblasts); assay: Cytotoxicity in L6 cells; conditions: read-out: L6 IC50 (cytotoxicity)

In the case of `O=C(NCCCn1ccnc1[N+](=O)[O-])c1ccc(C(F)(F)F)cc1` [Compound 1], the “activity designation against T. b. rhodesiense” value [1] is reported as “inactive”.

`O=C(NCCCn1ccnc1[N+](=O)[O-])c1ccc(OC(F)(F)F)cc1` [Compound 2, N-[3-(2-Nitro-1H-imidazol-1-yl)propyl]-4-(trifluoromethoxy)benzamide] was tested, and the “activity designation against T. b. rhodesiense” value [1] was “inactive”.

With `O=C(NCCCCn1cnc([N+](=O)[O-])n1)c1ccc(OC(F)(F)F)cc1` [Compound 6, N-[4-(3-Nitro-1H-1,2,4-triazol-1-yl)butyl]-4-(trifluoromethoxy)benzamide] the “SI (T. cruzi)” value ([2]; ratio IC50 in L6 cells/IC50 in T. cruzi) was greater than 2381.

In the case of `O=C(NCCCn1cnc([N+](=O)[O-])n1)c1cc(C(F)(F)F)cc(C(F)(F)F)c1` [Compound 8, N-[3-(3-Nitro-1H-1,2,4-triazol-1-yl)propyl]-3,5-bis(trifluoromethyl)benzamide], the “activity designation against T. b. rhodesiense” value [1] is reported as “inactivity”.

With `O=C(NCCCn1cnc([N+](=O)[O-])n1)c1ccc(C(F)(F)F)nc1` [Compound 9, N-[3-(3-Nitro-1H-1,2,4-triazol-1-yl)propyl]-6-(trifluoromethyl)pyridine-3-carboxamide] the “activity designation against T. b. rhodesiense” value [1] was “moderate activity”.

`O=C(NCCCn1cnc([N+](=O)[O-])n1)c1cnc2ccccc2n1` [Compound 12, N-[3-(3-Nitro-1H-1,2,4-triazol-1-yl)propyl]quinoxaline-2-carboxamide] was tested, and the “activity designation against T. b. rhodesiense” value [1] was “complete inactivity”.

With `O=C(NCCCn1cnc([N+](=O)[O-])n1)c1ccc(-c2ccccc2)cc1` [Compound 13, N-[3-(3-Nitro-1H-1,2,4-triazol-1-yl)propyl]-4-phenylbenzamide] the “activity designation against T. b. rhodesiense” value [1] was “moderately active (IC50 = 0.5–6.0 μM)”.

With `Cc1ccc2nc(NC(=O)Cn3cnc([N+](=O)[O-])n3)sc2c1` [Compound 17, N-(6-methyl-1,3-benzothiazol-2-yl)-2-(3-nitro-1H-1,2,4-triazol-1-yl)acetamide] the “activity designation against T. b. rhodesiense” value [1] was “inactive” and the “activity designation against L. donovani” value [3] was “moderately active (IC50 = 1.0–6.0 μM)”.

`O=C(Cn1cnc([N+](=O)[O-])n1)Nc1nc2ccc(Cl)cc2s1` [Compound 18, N-(6-chloro-1,3-benzothiazol-2-yl)-2-(3-nitro-1H-1,2,4-triazol-1-yl)acetamide] was tested, and the “activity designation against T. b. rhodesiense” value [1] was “inactive” and the “activity designation against L. donovani” value [3] was “moderately active (IC50 = 1.0–6.0 μM)”.

In the case of `O=C(Cn1cnc([N+](=O)[O-])n1)Nc1nc2cc(Cl)ccc2o1` [Compound 19, N-(5-chloro-1,3-benzoxazol-2-yl)-2-(3-nitro-1H-1,2,4-triazol-1-yl)acetamide], the “activity designation against T. b. rhodesiense” value [1] is reported as “inactive”.

For `O=[N+]([O-])c1nccn1CCCNS(=O)(=O)c1ccc(C(F)(F)F)cc1` [Compound 21, N-[3-(2-Nitro-1H-imidazol-1-yl)propyl]-4-(trifluoromethyl)benzene-1-sulfonamide], the “activity designation against T. b. rhodesiense” value [1] was “inactive”.

For `O=[N+]([O-])c1ncn(CCCNS(=O)(=O)c2cc(C(F)(F)F)ccc2C(F)(F)F)n1` [Compound 25, N-[3-(3-Nitro-1H-1,2,4-triazol-1-yl)propyl]-2,5-bis(trifluoromethyl)benzene-1-sulfonamide], the “activity designation against T. b. rhodesiense” value [1] was “inactivity”.

With `O=[N+]([O-])c1ncn(CCNS(=O)(=O)c2cc(C(F)(F)F)cc(C(F)(F)F)c2)n1` [Compound 26, N-[2-(3-nitro-1H-1,2,4-triazol-1-yl)ethyl]-3,5-bis(trifluoromethyl)benzene-1-sulfonamide] the “activity designation against T. b. rhodesiense” value [1] was “inactivity”.

With `O=[N+]([O-])c1ncn(CCCNS(=O)(=O)c2cc(C(F)(F)F)cc(C(F)(F)F)c2)n1` [Compound 27, N-[3-(3-nitro-1H-1,2,4-triazol-1-yl)propyl]-3,5-bis(trifluoromethyl)benzene-1-sulfonamide] the “activity designation against T. b. rhodesiense” value [1] was “inactivity”.

In the case of `Cc1ccc(S(=O)(=O)NCCCn2cnc([N+](=O)[O-])n2)cc1` [Compound 28, 4-Methyl-N-[3-(3-nitro-1H-1,2,4-triazol-1-yl)propyl]benzene-1-sulfonamide], the “SI (L.don. ax.)” value ([3]; ratio IC50 in L6 cells/IC50 in L. donovani) is reported as greater than 8.1.

For `O=[N+]([O-])c1ncn(CCNS(=O)(=O)Cc2ccccc2)n1` [Compound 30, N-[2-(3-Nitro-1H-1,2,4-triazol-1-yl)ethyl]-1-phenylmethanesulfonamide], the “activity designation against T. cruzi” value ([2]; TDR criteria) was “moderately active (IC50 = 4.0–60 μM)”.

`Nc1nc(N)nc(Nc2ccc([As]3SCC(CO)S3)cc2)n1` (stereo not drawn) [Melars., Melarsoprol, reference compound] gave an IC50 ([1]; Trypanosoma brucei, RHODESIENSE|STIB900, read-out: T.b.rhod. IC50) of 12 nM.

For `CC1CS(=O)(=O)CCN1/N=C/c1ccc([N+](=O)[O-])o1` (stereo not drawn) [Nfx, 4-(5-nitrofurfurylidenamino)-3-methylthio-morpholine-1,1-dioxide], the IC50 [4] was 1710 ± 60 nM.

Podophylotoxin [Podoph.] showed an IC50 [5] of 22 nM.
